Results: patent US9555039B2, “Piperidine derivatives and compositions for the inhibition of nicotinamide phosphoribosyltransferase (NAMPT)” (Forma TM, LLC., priority 2011, dated 2017)
Where two headings read alike, the source gives them in different places.

Key:
A2780 cells = test: In-vitro cell proliferation assay (SRB, 72 hours); assay type: cell-based; settings: Homo sapiens, sulforhodamine B (SRB) assay
In short: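 Viable cells measured by TCA fixation and SRB staining, absorbance 570 nm; % inhibition vs DMSO control after media-only background subtraction, interpolated between two bracketing concentrations.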

[1] = target: T1, Recombinant His-tagged NAMPT (Homo sapiens, UniProt P43490); test: Biochemical inhibition assay: NAMPT enzymatic reaction, NMN quantified by mass spectrometry; settings: 33 nM NAMPT, 1 μM NAM, 100 μM PRPP, 30 minutes at room temperature, read-out: Biochem IC50
T1 construct: His; host or cells: E. coli
T1 sequence (P43490 whole entry): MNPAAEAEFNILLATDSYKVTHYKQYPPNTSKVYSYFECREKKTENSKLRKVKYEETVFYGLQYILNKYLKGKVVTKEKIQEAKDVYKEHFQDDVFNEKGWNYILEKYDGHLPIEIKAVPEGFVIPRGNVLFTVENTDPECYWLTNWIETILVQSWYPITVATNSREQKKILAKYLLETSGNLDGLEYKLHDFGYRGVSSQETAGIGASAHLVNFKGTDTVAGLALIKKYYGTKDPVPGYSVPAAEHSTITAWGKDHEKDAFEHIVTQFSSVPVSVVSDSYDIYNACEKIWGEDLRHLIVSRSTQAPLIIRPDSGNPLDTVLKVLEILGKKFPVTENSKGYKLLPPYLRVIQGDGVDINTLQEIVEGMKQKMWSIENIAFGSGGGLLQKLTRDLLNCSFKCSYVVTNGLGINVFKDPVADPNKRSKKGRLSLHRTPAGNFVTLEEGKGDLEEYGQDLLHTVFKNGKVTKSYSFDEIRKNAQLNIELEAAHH
In short: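 Reaction 30 min at room temperature with 1 μM NAM, 100 μM PRPP, 2.5 mM ATP (final), quenched with formic acid. NMN quantified by RapidFire electrospray MS, normalized to L-cystathionine; IC50 from percent inhibition versus DMSO.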

SMILES | IC50 (A2780 cells) [nM] | IC50 ([1]; 2.5 mM ATP) [nM] | IC50 ([1]; […] ATP) [nM]
O=C(NCCCCC1CCN(C(=O)c2ccc(Cl)cc2)CC1)c1cc2ccncc2s1 [N-(4-{1-[(4-chlorophenyl)carbonyl]piperidin-4-yl}butyl)thieno[2,3-c]pyridine-2-carboxamide] | 1000 to 10000 | 22.8 | 
O=C(NCCCCC1CCN(S(=O)(=O)c2ccc(F)cc2)CC1)c1cc2cnccc2[nH]1 [N-(4-{1-[(4-fluorobenzene)sulfonyl]piperidin-4-yl}butyl)-1H-pyrrolo[3,2-c]pyridine-2-carboxamide] | 17.6 | 48.9 | 
O=C(NCCCCC1CCN(C(=O)c2ccc(F)cc2)CC1)c1ccc2nccn2c1 [N-(4-{1-[(4-fluorophenyl)carbonyl]piperidin-4-yl}butyl)imidazo[1,2-a]pyridine-6-carboxamide] | 26.2 | 12 | 
O=C(NCCCCC1CCN(C(=O)c2ccc(F)cc2)CC1)c1cc2ccncc2s1 [N-(4-{1-[(4-fluorophenyl)carbonyl]piperidin-4-yl}butyl)thieno[2,3-c]pyridine-2-carboxamide] | 100 to 1000 | 51.8 | 
COc1ccc(C(=O)N2CCC(CCCCNC(=O)c3cc4cnccc4[nH]3)CC2)cc1 [N-(4-{1-[(4-methoxyphenyl)carbonyl]piperidin-4-yl}butyl)-1H-pyrrolo[3,2-c]pyridine-2-carboxamide] | 16.3 | 79.7 | 
COc1ccc(C(=O)N2CCC(CCCCNC(=O)c3ccc4nccn4c3)CC2)cc1 [N-(4-{1-[(4-methoxyphenyl)carbonyl]piperidin-4-yl}butyl)imidazo[1,2-a]pyridine-6-carboxamide] | 57.6 | 23.2 | 
COc1ccc(C(=O)N2CCC(CCCCNC(=O)c3cc4ccncc4s3)CC2)cc1 [N-(4-{1-[(4-methoxyphenyl)carbonyl]piperidin-4-yl}butyl)thieno[2,3-c]pyridine-2-carboxamide] | 80.3 | 52.2 | 
Cc1ncsc1C(=O)N1CCC(CCCCNC(=O)c2cc3cnccc3[nH]2)CC1 [N-(4-{1-[(4-methyl-1,3-thiazol-5-yl)carbonyl]piperidin-4-yl}butyl)-1H-pyrrolo[3,2-c]pyridine-2-carboxamide] | 1 |  | 5.4
Cc1ncsc1C(=O)N1CCC(CCCCNC(=O)c2ccc3nccn3c2)CC1 [N-(4-{1-[(4-methyl-1,3-thiazol-5-yl)carbonyl]piperidin-4-yl}butyl)imidazo[1,2-a]pyridine-6-carboxamide] | 0.8 | 2.9 | 
Cc1ncsc1C(=O)N1CCC(CCCCNC(=O)c2cc3ccncc3s2)CC1 [N-(4-{1-[(4-methyl-1,3-thiazol-5-yl)carbonyl]piperidin-4-yl}butyl)thieno[2,3-c]pyridine-2-carboxamide] | 0.8 | 5.3 | 
COc1ccc(Cl)cc1C(=O)N1CCC(CCCCNC(=O)c2ccc3nccn3c2)CC1 [N-(4-{1-[(5-chloro-2-methoxyphenyl)carbonyl]piperidin-4-yl}butyl)imidazo[1,2-a]pyridine-6-carboxamide] | 3.1 | 10.5 | 
COc1ccc(Cl)cc1C(=O)N1CCC(CCCCNC(=O)c2cc3ccncc3s2)CC1 [N-(4-{1-[(5-chloro-2-methoxyphenyl)carbonyl]piperidin-4-yl}butyl)thieno[2,3-c]pyridine-2-carboxamide] | 3.3 | 14.1 | 
COc1ncc(Cl)cc1C(=O)N1CCC(CCCCNC(=O)c2cc3cnccc3[nH]2)CC1 [N-(4-{1-[(5-chloro-2-methoxypyridin-3-yl)carbonyl]piperidin-4-yl}butyl)-1H-pyrrolo[3,2-c]pyridine-2-carboxamide] | 3.3 | 30.3 | 
COc1ncc(Cl)cc1C(=O)N1CCC(CCCCNC(=O)c2ccc3nccn3c2)CC1 [N-(4-{1-[(5-chloro-2-methoxypyridin-3-yl)carbonyl]piperidin-4-yl}butyl)imidazo[1,2-a]pyridine-6-carboxamide] | 3.3 | 12.3 | 
COc1ncc(Cl)cc1C(=O)N1CCC(CCCCNC(=O)c2cc3ccncc3s2)CC1 [N-(4-{1-[(5-chloro-2-methoxypyridin-3-yl)carbonyl]piperidin-4-yl}butyl)thieno[2,3-c]pyridine-2-carboxamide] | 7.1 | 17 | 
O=C(NCCCCC1CCN(C(=O)c2cc3cc(F)ccc3[nH]2)CC1)c1cc2cnccc2[nH]1 [N-(4-{1-[(5-fluoro-1H-indol-2-yl)carbonyl]piperidin-4-yl}butyl)-1H-pyrrolo[3,2-c]pyridine-2-carboxamide] | 100 to 1000 | 97.1 | 
O=C(NCCCCC1CCN(C(=O)c2cc3cc(F)ccc3[nH]2)CC1)c1cc2ccncc2s1 [N-(4-{1-[(5-fluoro-1H-indol-2-yl)carbonyl]piperidin-4-yl}butyl)thieno[2,3-c]pyridine-2-carboxamide] | 1000 to 10000 | 30.4 | 
Cc1ccc(F)cc1C(=O)N1CCC(CCCCNC(=O)c2cc3cnccc3[nH]2)CC1 [N-(4-{1-[(5-fluoro-2-methylphenyl)carbonyl]piperidin-4-yl}butyl)-1H-pyrrolo[3,2-c]pyridine-2-carboxamide] | 2.3 | 14.2 | 

SMILES | IC50 (A2780 cells) [nM] | IC50 ([1]; 2.5 mM ATP) [nM] | IC50 ([1]; […] ATP) [nM]
Cc1ccc(F)cc1C(=O)N1CCC(CCCCNC(=O)c2ccc3nccn3c2)CC1 [N-(4-{1-[(5-fluoro-2-methylphenyl)carbonyl]piperidin-4-yl}butyl)imidazo[1,2-a]pyridine-6-carboxamide] | 3.9 | 10.9 | 
Cc1ccc(F)cc1C(=O)N1CCC(CCCCNC(=O)c2cc3ccncc3s2)CC1 [N-(4-{1-[(5-fluoro-2-methylphenyl)carbonyl]piperidin-4-yl}butyl)thieno[2,3-c]pyridine-2-carboxamide] | 1.8 | 4.5 | 
O=C(NCCCCC1CCN(C(=O)c2ccc(F)cn2)CC1)c1cc2cnccc2[nH]1 [N-(4-{1-[(5-fluoropyridin-2-yl)carbonyl]piperidin-4-yl}butyl)-1H-pyrrolo[3,2-c]pyridine-2-carboxamide] | 14 | 57.2 | 
O=C(NCCCCC1CCN(C(=O)c2ccc(F)cn2)CC1)c1ccc2nccn2c1 [N-(4-{1-[(5-fluoropyridin-2-yl)carbonyl]piperidin-4-yl}butyl)imidazo[1,2-a]pyridine-6-carboxamide] | 67.9 | 74 | 
O=C(NCCCCC1CCN(C(=O)c2ccc(F)cn2)CC1)c1cc2ccncc2s1 [N-(4-{1-[(5-fluoropyridin-2-yl)carbonyl]piperidin-4-yl}butyl)thieno[2,3-c]pyridine-2-carboxamide] | 100 to 1000 | 26.5 | 
Cc1cnc(C(=O)N2CCC(CCCCNC(=O)c3cc4cnccc4[nH]3)CC2)cn1 [N-(4-{1-[(5-methylpyrazin-2-yl)carbonyl]piperidin-4-yl}butyl)-1H-pyrrolo[3,2-c]pyridine-2-carboxamide] | 23.8 | 115 | 
Cc1cnc(C(=O)N2CCC(CCCCNC(=O)c3ccc4nccn4c3)CC2)cn1 [N-(4-{1-[(5-methylpyrazin-2-yl)carbonyl]piperidin-4-yl}butyl)imidazo[1,2-a]pyridine-6-carboxamide] | 66.7 | 10.9 | 
Cc1cnc(C(=O)N2CCC(CCCCNC(=O)c3cc4ccncc4s3)CC2)cn1 [N-(4-{1-[(5-methylpyrazin-2-yl)carbonyl]piperidin-4-yl}butyl)thieno[2,3-c]pyridine-2-carboxamide] | 100 to 1000 | 68.5 | 
Cc1ccc(C(=O)N2CCC(CCCCNC(=O)c3cc4cnccc4[nH]3)CC2)cn1 [N-(4-{1-[(6-methylpyridin-3-yl)carbonyl]piperidin-4-yl}butyl)-1H-pyrrolo[3,2-c]pyridine-2-carboxamide] | 21.3 | 65.1 | 
Cc1ccc(C(=O)N2CCC(CCCCNC(=O)c3ccc4nccn4c3)CC2)cn1 [N-(4-{1-[(6-methylpyridin-3-yl)carbonyl]piperidin-4-yl}butyl)imidazo[1,2-a]pyridine-6-carboxamide] | 73.6 | 23.8 | 
Cc1ccc(C(=O)N2CCC(CCCCNC(=O)c3cc4ccncc4s3)CC2)cn1 [N-(4-{1-[(6-methylpyridin-3-yl)carbonyl]piperidin-4-yl}butyl)thieno[2,3-c]pyridine-2-carboxamide] | 100 to 1000 | 69.7 | 
Cc1nc(C)c(C(=O)N2CCC(CCCCNC(=O)c3ccc4nccn4c3)CC2)s1 [N-(4-{1-[(dimethyl-1,3-thiazol-5-yl)carbonyl]piperidin-4-yl}butyl)imidazo[1,2-a]pyridine-6-carboxamide] | 6.6 | 24.1 | 
O=C(NCCCCC1CCN(C(=O)c2ccoc2)CC1)c1cc2cnccc2[nH]1 [N-(4-{1-[(furan-3-yl)carbonyl]piperidin-4-yl}butyl)-1H-pyrrolo[3,2-c]pyridine-2-carboxamide] | 10.1 | 9.1 | 
O=C(NCCCCC1CCN(C(=O)c2ccoc2)CC1)c1ccc2nccn2c1 [N-(4-{1-[(furan-3-yl)carbonyl]piperidin-4-yl}butyl)imidazo[1,2-a]pyridine-6-carboxamide] | 25.6 | 6.2 | 
O=C(NCCCCC1CCN(C(=O)c2ccoc2)CC1)c1cc2ccncc2s1 [N-(4-{1-[(furan-3-yl)carbonyl]piperidin-4-yl}butyl)thieno[2,3-c]pyridine-2-carboxamide] | 6 | 4 | 
O=C(NCCCCC1CCN(C(=O)c2ccccn2)CC1)c1cc2cnccc2[nH]1 [N-(4-{1-[(pyridin-2-yl)carbonyl]piperidin-4-yl}butyl)-1H-pyrrolo[3,2-c]pyridine-2-carboxamide] | 6.3 | 30.6 | 
O=C(NCCCCC1CCN(C(=O)c2ccccn2)CC1)c1ccc2nccn2c1 [N-(4-{1-[(pyridin-2-yl)carbonyl]piperidin-4-yl}butyl)imidazo[1,2-a]pyridine-6-carboxamide] | 13.5 | 36.4 | 
